Results from patent US20070021325A1, “Drug formulation containing a solubilizer for enhancing solubility, absorption, and permeability” (Mediplex Corporation, priority 2005, published 2007).

Assay: Oral absorption of encapsulated DMSO-bound heparin-DOCA in monkeys (FIG. 5)
Format: in vivo
Settings: in buffer, 100 mg/kg (control)
Procedure: DMSO-bound heparin-DOCA prepared according to the method of Example 1 was encapsulated and then administered orally to monkeys at either 5 mg/kg or 10 mg/kg dosages. As a control, heparin in buffer was orally administered at 100 mg/kg.

absorption after oral administration: negligible
Substance: heparin
